Source: patent US10329304B2, “Compounds and methods for inhibition of hedgehog signaling and phosphodiesterase” (Vanderbilt University, priority 2014, dated 2019)

test system: zebrafish embryos; assay: Zebrafish embryo phenotypic assay (ZF); type: in vivo; conditions: wild-type embryonic zebrafish, dosed 5 hpf
Method: All zebrafish experiments were approved by Vanderbilt University Institutional Animal Care and Use Committee. Wild-type zebrafish of AB strain were maintained using standard protocols. Chemical screen for small molecules was performed as previously described. Briefly, pairs of zebrafish were mated, and fertilized eggs were arrayed in 96-well microtiter plates (5 embryos/well) containing 250 μl E3 water. At ˜4-hpf, small molecule library from Vanderbilt High Throughput Screening Facility was added to each well to the final concentration of 5 μM. Embryos were incubated at 28.5° C. until 24 and 48-hpf, when they were examined for gross morphologic changes indicative of disruption in embryonic patterning. A total of ˜30,000 compounds were screened.
ZF refers to wild-type embryonic zebrafish phenotypic assay involving dosing n=˜10 embryos in E3 egg water with compound from either a stock of 1 mM or 10 mM in DMSO at 5 hours post-fertilization and observing at 24, 48, and 72 hours post-fertilization.

SMILES | ZF Phenotype EC100 [µM]
COC(=O)c1cc(-c2ccc(F)cc2)sc1NC(=S)NC1CC1 [JEH-2-026] | 25
O=C(CSc1nc2sccc2c(=O)n1CC1CC1)c1ccccc1 [JEH-2-007-1] | 10
C=C(C)Cn1c(SCC(=O)c2cc3ccccc3o2)nc2sc3c(c2c1=O)CCCC3 [KK-14-094-1] | >50
CSc1nc2sc3c(c2c(=O)n1C1CC1)CCCC3 [JEH-1-127] | >50
CSc1nc2sccc2c(=O)n1C1CC1 [JEH-1-131-2] | >50
O=C(CSc1nc2sc3c(c2c(=O)n1-c1ccc(Cl)cn1)CCCC3)c1cccs1 [JEH-1-050-2] | 25
O=C(O)c1ccc(-n2c(SCC(=O)c3cccs3)nc3sc4c(c3c2=O)CCCC4)cc1 [JEH-1-066] | >50
O=C(CSc1nc2sc3c(c2c(=O)n1C1CC1)CCOC3)c1cccs1 [JEH-1-161-1] | 0.5
O=C(CSc1nc2sc3c(c2c(=O)n1-c1ccccn1)CCCC3)c1cccs1 [JEH-1-034] | 1
O=C(CSc1nc2sc3c(c2c(=O)n1C1CC1)CCN(S(=O)(=O)c1ccc(Cl)cc1)C3)c1ccccc1 [KYK-1-58] | >50
O=C(CSc1nc2sccc2c(=O)n1C1CC1)N1CCOCC1 [JEH-1-103] | >50
C=C(C)Cn1c(SCc2nc3ccc(S(=O)(=O)Nc4ccccc4OC)cc3[nH]2)nc2sc3c(c2c1=O)CCCC3 [KK-093-2] | >50
CC(C1CC1)n1c(SCC(=O)Nc2ccccn2)nc2sccc2c1=O (stereo not shown) [JEH-2-041-1] | 20
C=C(C)Cn1c(SCc2nc3cc(OC)ccc3o2)nc2sc3c(c2c1=O)CCCC3 [KK-14-096-2] | >50
O=C(CSc1nc2sc3c(c2c(=O)n1C1CC1)CCCC3)c1ccncc1 [JEH-1-163-2] | >50
COC(=O)c1c(NC(=S)NC2CC2)sc2c1CCNC2 [KYK-1-96] | >50
O=C(CSc1nc2sccc2c(=O)n1CC1CC1)c1cccs1 [JEH-1-065-1] | 5
O=C(CSc1nc2sc3c(c2c(=O)n1C1CC1)CCSC3)c1cccs1 [JEH-1-161-2] | 1
O=C(CSc1nc2ccccc2c(=O)n1C1CC1)c1cccs1 [JEH-1-134] | 1
O=C(CSc1nc2sc3c(c2c(=O)n1C1CC1)CCN(C(=O)C1CC1)C3)c1cccs1 [JEH-1-124] | >50
Cn1cnc(S(=O)(=O)N2CCc3c(sc4nc(SCC(=O)c5ccccc5)n(C5CC5)c(=O)c34)C2)c1 [KYK-1-66] | >50
O=c1c2c3c(sc2[nH]c(=S)n1C1CC1)CNCC3 [KYK-1-99] | >50

SMILES | ZF Phenotype EC100 [µM]
O=C(CSc1nc2sc3c(c2c(=O)n1C1CC1)CCN(CCCc1ccccc1)C3)c1ccccc1 [KYK-1-88] | >50
C=C(C)Cn1c(SCC(=O)c2ccc(Cl)s2)nc2sc3c(c2c1=O)CCCC3 [KK-14-094-2] | >50
C=C(C)Cn1c(SCC(=O)c2cc3ccccc3s2)nc2sc3c(c2c1=O)CCCC3 [KK-14-093-1] | >50
O=C(CSc1nc2sc3c(c2c(=O)n1C1CC1)CCN(S(=O)(=O)c1ccc([N+](=O)[O-])cc1)C3)c1ccccc1 [KYK-1-61] | >50
O=c1c2ccsc2nc(SCc2ccc(Br)cc2)n1C1CC1 [JEH-1-190-2] | 50
CCCCN1CCc2c(sc3nc(SCC(=O)c4ccccc4)n(C4CC4)c(=O)c23)C1 [KYK-1-103-2] | >50
O=C(CSc1nc2sc3c(c2c(=O)n1C1CC1)CCN(Cc1ccco1)C3)c1ccccc1 [KYK-1-103-1] | >50
C=C(C)Cn1c(SCc2nc3ccc(C(=O)O)cc3[nH]2)nc2sc3c(c2c1=O)CCCC3 [KK-14-096-1] | >50
O=C(CSc1nc2ccsc2c(=O)n1C1CC1)c1cccs1 [JEH-2-069-2] | 48
O=C(CSc1nc2sc(-c3ccc(F)cc3)cc2c(=O)n1C1CC1)c1ccccc1 [JEH-2-034] | >50
O=C(CSc1nc2sc3c(c2c(=O)n1C1CC1)CCNC3)c1cccs1 [JEH-1-097] | >50
COc1ccc(-c2cc3c(=O)n(C4CC4)c(SCC(=O)c4ccccc4)nc3s2)cc1 [JEH-2-018] | >50
CC(C1CC1)n1c(SCC(=O)Nc2ccccc2O)nc2sccc2c1=O (stereo not shown) [JEH-2-041-2] | 30
C=C(C)Cn1c(SCc2nc3ccc(Cl)cc3o2)nc2sc3c(c2c1=O)CCCC3 [KK-14-094-3] | >50
O=C(CSc1nc2sc3c(c2c(=O)n1C1CC1)CCN(C(=O)c1ccc(Cl)cc1)C3)c1ccccc1 [KYK-1-54] | >50
O=C(CSc1nc2sc3c(c2c(=O)n1-c1ccc(Br)cc1)CCCC3)c1cccs1 [JEH-1-050-1] | >50
CC(C1CC1)n1c(SCC(=O)c2ccccc2)nc2sccc2c1=O (stereo not shown) [JEH-2-003] | 30
O=c1c2ccsc2nc(SCc2ccccc2)n1C1CC1 [JEH-1-190-1] | 50
C=C(C)Cn1c(SCC(=O)N2CCOCC2)nc2sccc2c1=O [JEH-1-104] | >50
C#CCNC(=O)CSc1nc2sc3c(c2c(=O)n1CC(=C)C)CCCC3 [JEH-2-060] | 30
COC(=O)c1c(NC(=S)SC)sc2c1CCNC2 [KYK-1-87] | >50

test system: Hedgehog signaling (TM3-Gli-Luc); assay: TM3-Gli-Luc luciferase reporter assay stimulated with 20 nM SAG; type: cell-based; conditions: not given
Method: TM3-Gli-Luc cells were maintained on sterile 0.1% gelatin (from porcine skin, Type A, prepared in MilliQ water, autoclaved, then sterile-filtered) in 1:1 Dulbecco's Modified Eagle Medium (DMEM)/F12 supplemented with 5% horse serum, 2.5% fetal bovine serum (FBS), and 15 mM HEPES, hereafter referred to as TM3 Culture Medium. For small molecule evaluation, TM3-Gli-Luc cells were assayed on 0.1% gelatin in DMEM/F12 supplemented with 2.5% FBS and 15 mM HEPES, hereafter referred to as TM3Luc Medium. Sufu^−/− cells were maintained in DMEM supplemented with 4.5 g/L D-glucose, L-glutamine, 25 mM HEPES, and 10% FBS, hereafter referred to as D10 FBS. For small molecule evaluation, Sufu^−/− cells were assayed in DMEM supplemented with 4.5 g/L D-glucose, L-glutamine, 25 mM HEPES, and 0.5% FBS, hereafter referred to as D0.5 FBS. All cells were cultured at 37° C. with a 5% CO2 atmosphere.
On the day of cell plating, 96-well plates were coated with 50 μL/well of sterile 0.1% gelatin for 5 minutes then aspirated and replaced with 50 μL/well of TM3 Culture Medium. TM3-Gli-Luc cells were seeded at a density of 5,000 cells/well in TM3 Culture Medium and incubated for 24 hours. A master mix of 20 nM SAG in TM3Luc Medium was prepared, and small molecule solutions were prepared by adding the desired amount of compound from 10 mM DMSO stock to TM3Luc Medium containing 20 nM SAG. Negative control was prepared by adding an equi-volume amount of DMSO as compared to small molecule treated conditions to TM3Luc Medium not containing SAG. Cell plating medium was aspirated and replaced with 100 μL/well of prepared small molecule-containing media, and plates were incubated for 48 hours before proceeding to luciferase activity and cell viability reading.
TM3Luc Medium from compound treated plates was aspirated and replaced with 82 μL/well of Glo Lysis Buffer (Promega, Madison, Wis., USA), and plates were shaken at 300 rpm and room temperature for 12 minutes. Lysate was split between two white 96-well plates, 45 μL/well and 25 μL/well for luciferase reading and cell viability respectively. For luciferase activity monitoring, 45 μL/well of Steady Glo (Promega, Madison, Wis., USA) was added to 45 μL/well of cell lysate, incubated at room temperature for 5 minutes, then luminescence was measured on a Turner Biosystems Modulus Microplate Reader (Sunnyvale, Calif., USA) with an integration time of 0.5 seconds. For cell viability measurement, 25 μL/well of Cell Titer Glo (Promega, Madison, Wis., USA) (prepared by 1:10 dilution with Glo Lysis Buffer) was added to 25 μL/well of cell lysate, incubated at room temperature for 5 minutes, then luminescence was measured as above.
Luciferase activity data (Steady Glo) was divided by corresponding cell viability data (Cell Titer Glo) to arrive at a live cell number-normalized luciferase activity reading. The average of negative control data (DMSO treated) was subtracted from all wells, and percent activity was calculated by dividing all wells by the positive control (SAG treated) average. […] At least two independent assays tested on separate days were averaged to provide EC50±standard error of the mean.

SMILES | TM3 G8 Luciferase % Inh., 2 pM [%]
C=C(C)Cn1c(SCC(=O)N2CCCC[C@H]2C)nc2sc3c(c2c1=O)CCCC3 [JEH-4-136] | 44.3

same assay, conditions: 0.5 pM as printed

SMILES | TM3 G8 Luciferase % Inh., 0.5 pM [%]
C=C(C)Cn1c(SCC(=O)N2CCCC[C@H]2C)nc2sc3c(c2c1=O)CCCC3 [JEH-4-136] | 3.7

same assay, conditions: 20 nM SAG

SMILES | Hh inhibitory activity / potency in words
O=C(CNc1nc2sccc2c(=O)n1C1CC1)c1ccccc1 [Formula 22b] | complete loss of inhibition
O=C(COc1nc2sccc2c(=O)n1C1CC1)c1ccccc1 [Formula 22a] | complete loss of inhibition
C=C(C)Cn1c(SCC(=O)c2cccs2)nccc1=O [Formula 14a] | complete loss of activity
CC(O)(CSc1nc2sccc2c(=O)n1C1CC1)c1ccccc1 (stereo not shown) [Formula 20b] | only modest potency reductions
C=C(C)Cn1c(SCC(=O)c2cccs2)nccc1=O [Formula 12] | complete loss of Hh inhibitory activity

same assay, conditions: 20 nM SAG; read-out: EC50

SMILES | EC50 [µM]
C=C(C)Cn1c(SCC(=O)c2cccs2)nc2sc3c(c2c1=O)CCCC3 [EGM1] | 1.34

same assay, conditions: TM3-Gli-Luc reporter line stimulated with 20 nM SAG; mean ± SEM; Table 13; read-out: TM3-Gli-Luc EC50

SMILES | EC50 [µM]
C=C(C)Cn1c(SCC(=O)c2cccs2)nccc1=O [Formula 14a] | > 20
C=C(C)Cn1c(SCC(=O)c2cccs2)nccc1=O [Formula 12] | > 20

same assay, conditions: Table 9A; read-out: TM3 G8 Luciferase EC 50

SMILES | EC50 [µM]
O=C(CSc1nc2sc3ccccc3c2c(=O)n1C1CC1)c1ccccc1 [JEH-4-055-1] | 16.6
O=C(CSc1nc2sc3c(c2c(=O)n1C1CC1)CCOC3)c1cccs1 [JEH-1-161-1] | 19.1
C=C(C)Cn1c(SCC(=O)c2cccs2)nc2sc3c(c2c1=O)CCSC3 [JEH-4-143] | 2.51
O=C(CSc1nc2sc3ccccc3c2c(=O)n1C1CC1)N1CCCCC1 [JEH-4-055-2] | 6.03
O=C(CSc1nc2sc3c(c2c(=O)n1C1CC1)CCCC3)c1ccncc1 [JEH-1-163-2] | 3.79
O=C(CSc1nc2sc3c(c2c(=O)n1C1CC1)CCSC3)c1cccs1 [JEH-1-161-2] | 9.55
O=C(CSc1nc2ccccc2c(=O)n1C1CC1)c1cccs1 [JEH-1-134] | 0.713
O=C(CSc1nc2ccsc2c(=O)n1C1CC1)c1cccs1 [JEH-2-069-2] | 1.11
C=C(C)Cn1c(SCCc2cccs2)nc2sc3c(c2c1=O)CCCC3 [JEH-4-135] | 5.5
Cc1sc2nc(SCC(=O)c3ccccc3)n(C3CC3)c(=O)c2c1C [JEH-5-087] | 31.6
C=C(C)Cn1c(NCC(=O)c2cccs2)nc2sc3c(c2c1=O)CCCC3 [JEH-5-052] | 25
